{"source": "patent US10973810B2", "about": "“Methods for the treatment of neurological disorders” (Yumanity Therapeutics, Inc., priority 2017, dated 2021)", "key": {"human SCD1": {"target": "T1, human SCD1 (Homo sapiens, UniProt O00767)", "T1 construct": "host or cells: S. cerevisiae ole1Δ strain (W303 pdr1Δ pdr3Δ background), plasmid pRS316 with TDH3 promoter and CYC1 terminator", "T1 sequence (O00767 1-359)": "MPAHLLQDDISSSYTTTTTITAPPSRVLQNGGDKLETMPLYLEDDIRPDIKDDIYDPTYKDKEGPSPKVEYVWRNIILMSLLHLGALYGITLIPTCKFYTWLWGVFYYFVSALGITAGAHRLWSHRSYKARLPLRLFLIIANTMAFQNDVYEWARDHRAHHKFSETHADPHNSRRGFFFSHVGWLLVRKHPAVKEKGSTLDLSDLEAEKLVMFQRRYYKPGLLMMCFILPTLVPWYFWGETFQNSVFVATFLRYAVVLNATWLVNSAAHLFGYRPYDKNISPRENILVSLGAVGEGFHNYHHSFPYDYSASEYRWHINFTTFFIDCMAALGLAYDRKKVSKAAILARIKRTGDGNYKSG", "test": "Growth of humanized yeast surviving solely on human SCD1", "format": "cell-based", "details": "growth inhibition", "text": "The coding sequence of yeast OLE1 was also cloned into this plasmid). These clones were then transformed into the ole1d strain and plated on CSM-Ura media (CSM lacking uracil) with 2% glucose (w/v) and independent colonies were isolated and amplified.\nFor experiments using a plasmid-borne copy of Ole1, SCD1, or SCD5 (FIGS. 3B, 6, and 7), media lacking uracil (SX-Ura, where X is glucose, raffinose, or galactose), was used for all steps of the compound profiling protocol to ensure its maintenance throughout the assay.\nAfter yeast delivery, assay plates were incubated under humidified conditions at 30° C. for 24 to 40 h. ApoE4 rescue experiments were stopped at 24 h, aSyn experiments at 40 h, Ole1 at 24 h, and SCD1/SCD5 at 40 h. The growth of yeast was monitored by reading the OD600 of each well using a microplate reader (Perkin Elmer EnVision™)."}, "SCD": {"tested_on": "SCD", "test": "Fatty acid saturation in guinea pig brain after oral administration of SCD inhibitors (GC-FID of FAME)", "format": "in vivo", "details": "25 mg/kg orally twice daily for 5 days; brain 4 h after last dose; vs vehicle", "experimental": "FIG. 18A-18F are a series of graphs showing an evaluation of fatty acid saturation in guinea pig brain after oral administration of SCD inhibitors. Guinea pigs were dosed orally with SCD inhibitors twice daily (every 12 hours) for 5 days. Guinea pigs were dosed with vehicle, SCD5 Selective Inhibitor 1 (“SCD5-SI-1”), SCD5 Selective Inhibitor 2 (“SCD5-SI-2”), CAY10566 (“CAY”) or SCD1/SCD5 Inhibitor 1 (“SCD1/5-1”), all compounds at 25 mg/kg with a volume-matched vehicle control. Four hours after the last dose on day 5, guinea pigs were sacrificed, and brains were removed after whole-body saline perfusion. […] Samples were evaluated on a gas chromatograph with a flame ionization detector (GC-FID) to quantify a comprehensive panel of fatty acid species. Brain samples were evaluated for levels of 16 (FIG. 18A) and 18 (FIG. 18B) carbon-containing fatty acids (C16, C18 respectively), and the desaturation index (DI) was calculated by taking the ratio of desaturated to saturated fatty acid for each species. […] Brain samples were evaluated for the relative levels of the positional isomers of C16, including C16:1 n7 palmitoleic acid (FIG. 18C) or C16:1 n9 monounsaturated fatty acids (FIG. 18D). […] Data was analyzed by one-way ANOVA with Tukey's post-hoc test to account for multiple comparisons. **p<0.01, ***p<0.005, ****p<0.0001. […]"}}, "data": [{"smiles": "Cc1nnc(-c2ccc(N3CCC(Oc4cc(F)ccc4Cl)CC3)nn2)o1", "note": "[CAY10566]", "values": [{"measurement": "half-maximal inhibitory concentration (IC50), SCD1 humanized strain", "setting": "human SCD1", "value": "low nanomolar"}, {"measurement": "C16 desaturation index (DI) in brain", "setting": "SCD", "value": "decreased"}]}]}
